Reference: patent US6384019B1, “Gemcitabine derivatives” (Norsk Hydro ASA, priority 1997, dated 2002)
Where “and” joins values, the source holds several entries; their conditions need not be identical. Equal entries are not always repeated. Where two headings read alike, the source gives them in different places.

What was measured:
[1] = system: murine colon cancer Co-26; assay: Co-26 inoculated intrasplenic to mice, intraperitoneal treatment; assay type: in vivo
Procedure: (§1) The anti tumour effect of Gemcitabine-N^4-elaidic amide or Gemcitabine-5′-elaidic ester were investigated in-vivo in mice in two different tumour types, both with single and repeated dosing
Balb/c female mice were inoculated with the murine colon cancer Co-26 in the spleen on day 0. In this model, tumours develop mainly in the liver. Intraperitoneal treatment was started on day 1. Single doses of the compounds were tested in comparison with Gemcitabine at single dose. Saline was used as control.
In parallel experiment, dosing was repeated on days 1-11

[2] = cited from earlier work
subline C26G = assay: Cytotoxicity, continuous drug exposure 72 hours, SRB assay; assay type: cell-based, murine; details: 72 hours continuous exposure, read-out: IC50 cytotoxicity C2G-G
Text: (§2) The cytoxicity activity of Gemcitabine-N^4-elaidic amide and Gemcitabine-5′-elaidic ester were investigated in 2 pairs of rodent and human tumour cell lines, each consisting of a parent line and a subline either resistant or cross-resistant to Gemcitabine.
(§3) The cell lines were the human ovarian tumour line A2780 and subline AG6000 which is resistant to Gemcitabine and has a deficiency of deoxycytidine kinase, and the murine colon tumour line C26A and the subline C26G with no altered deoxycytidine kinase but a 10-fold decrease in thymidine kinase I. The cytotoxicity of each compound was evaluated following continuous drug exposure for 72 hours. The cell numbers were determined by SRB assay, and percentage growth inhibition was calculated for each tumour line as IC50 value, given in μM, that is the concentration of the compound giving rise to a 50% growth inhibition compared to control.

CEM cells = assay: Cytostatic activity in CEM cells with and without nucleoside transport modifiers; assay type: cell-based; details: for Rise in IC50 with the addition of NT inhibitors: with versus without NT inhibitors
Procedure: The cytostatic activity of gemcitabine and gemcitabine-5′-elaidic acid ester in CEM cells was determined with and without the nucleoside transport modifiers Nitrobenzylthioinosine (NBMPR) or Persantine (Pyridamole). […] With the addition of NT inhibitors, there is a ten-fold rise in the IC50 gemcitabine values, while the IC50 gemcitabine-5′-elaidic acid ester is little affected (1.3-1.5 increase).

[3] = system: murine lymphatic leukaemia P 388 cells; assay: P-388 ip in mice, single or repeated doses; assay type: in vivo
Text: as §1
B6D2F1 female mice were implanted with the murine lymphatic leukaemia P 388 cells intraperitoneally. Treatments were initiated on day 1 post implantation of cells intraperitoneally. […] Single dose treatment with Gemcitabine-5′-elaidic ester was effective with prolonged survival time and long term survivor observed compared to the same dose of Gemcitabine.

[4] = system: subline AG6000 (resistant to Gemcitabine, deficiency of deoxycytidine kinase); assay: Cytotoxicity, continuous drug exposure 72 hours, SRB assay; assay type: cell-based, human
Text: as §2, §3

[5] = system: human ovarian tumour line A2780; assay: as above; assay type: cell-based
Text: as §2, §3

[6] = system: murine colon tumour line C26A; assay: as above; assay type: cell-based; details: 72 hours continuous exposure, read-out: IC50 cytotoxicity C26-A
Text: as §2, §3

[7] = Co-26, repeated dosing days 1-11, 1 mg/kg
[8] = Co-26, repeated dosing days 1-11, 4 mg/kg
[9] = Co-26, single dose ip day 1, 75 mg/kg
[10] = Co-26, single dose ip day 1, 100 mg/kg
[11] = P-388, repeated dose days 1-4, 15 Mg/kg
[12] = P-388, repeated dose days 1-11, 1 mg/kg
[13] = P-388, repeated dose days 1-11, 4 mg/kg
[14] = P-388, single dose treatment, 75 mg/kg
[15] = P-388, single dose treatment, 100 mg/kg
[16] = Co-26, single dose ip day 1, 25 mg/kg
[17] = P-388, repeated dose days 1-4, 1 Mg/kg
[18] = P-388, repeated dose days 1-4, 4 Mg/kg

Compound | Long term survivors (>46 d) [1, 7] | Mean survival time T/C [1, 7] | Toxic deaths [1, 7] | Long term survivors (>46 d) [1, 8] | Mean survival time T/C [1, 8] | Toxic deaths [1, 8] | Long term survivors (>35 d) [1, 9] | Mean survival time T/C [1, 9] | Toxic deaths [1, 9] | Long term survivors (>35 d) [1, 10] | Mean survival time T/C [1, 10] | Toxic deaths [1, 10] | Rise in IC50 with the addition of NT inhibitors (CEM cells; CEM cells) | Long term survivors (>45 d) [3, 12] | Mean survival time T/C [3, 12] | Toxic deaths [3, 12] | Long term survivors (>45 d) [3, 13] | Mean survival time T/C [3, 13] | Toxic deaths [3, 13] | Long term survivors (>35 d) [3, 14] | also measured
Nc1ccn([C@@H]2O[C@H](CO)[C@@H](O)C2(F)F)c(=O)n1 [Gemcitabine, 2′,2′-difluoro-deoxycytidine] |  2/8 | 170.6% | ⅛ |  0/8 | toxic |  8/8 |  2/7 | 132.8% |  0/7 |  4/7 | 116.2% |  0/7 | ten-fold rise |  0/6 | 178.8% |  0/6 |  0/6 | 71.9% | 6/6 |  0/6 | Plasma concentration that inhibits the anti-cancer effect (saturation of the phosphorylation mechanism) [2]: above 35 μM; Plasma concentration with optimal effect [2]: about 20 μM; IC50 (subline C26G; Mus musculus): 7.5 nM; IC50 (CEM cells; Homo sapiens, CCRF-CEM, read-out: IC50 Persantine 4 μg/ml): 1260 ± 40 nM; IC50 (CEM cells; Homo sapiens, CCRF-CEM, CEM cells, NBMPR 100 μM, read-out: IC50 NBMPR 100 μM): 1110 ± 80 nM; IC50 (CEM cells; Homo sapiens, CCRF-CEM, CEM cells, no inhibitor, read-out: IC50 No inhibitor): 110 ± 10 nM; Long term survivors (>35 d) [3, 11]:  0/6; Mean survival time T/C [3, 11]: 58.0%; Toxic deaths [3, 11]: all animals died of toxicity and  6/6; Mean survival time T/C [3, 14]: 138.9%; Toxic deaths [3, 14]:  0/7; IC50 ([4]; Homo sapiens, AG6000, 72 hours continuous exposure): 100000 nM; IC50 ([5]; Homo sapiens, A2780, 72 hours continuous exposure): 0.5 nM; IC50 ([6]; Mus musculus): 5.5 nM
CCCCCCCC/C=C/CCCCCCCC(=O)OC[C@H]1O[C@@H](n2ccc(N)nc2=O)C(F)(F)[C@@H]1O [Gemcitabine-5′-elaidic ester, Elaidic Acid (5′)-Gemcitabine Ester] | ⅛ | 150.6% |  0/8 | ⅜ | 166.9% |  2/8 |  1/7 | 128.6% |  0/7 |  4/7 | 100.1% |  0/7 | 1.3-1.5 fold |  0/6 | 317.0% |  0/6 |  2/6 | 220.6% |  0/6 | ⅙ | IC50 (subline C26G): 0.5 nM; IC50 (CEM cells; CEM cells, NBMPR 100 μM, read-out: IC50 NBMPR 100 μM): 72 ± 34 nM; IC50 (CEM cells; CEM cells, Persantine 4 μg/ml, read-out: IC50 Persantine 4 μg/ml): 65 ± 23 nM; IC50 (CEM cells; CEM cells, no inhibitor, read-out: IC50 No inhibitor): 47 ± 6 nM; Potency relative to the mother drug in the "resistant" situation (CEM cells; CEM cells, with NT inhibitors, versus gemcitabine): 15-20 fold; Mean survival time T/C [3, 14]: 186.3%; Toxic deaths [3, 14]:  0/6; Long term survivors (>35 d) [3, 15]:  0/6; Mean survival time T/C [3, 15]: 138.9%; Toxic deaths [3, 15]:  0/6; IC50 ([4]; 72 hours continuous exposure): 100000 nM; IC50 ([5]; 72 hours continuous exposure): < 0.1 nM; IC50 [6]: 0.3 nM
CCCCCCCC/C=C/CCCCCCCC(=O)Nc1ccn(C2OC(CO)C(O)C2(F)F)c(=O)n1 (centres unmarked) [Gemcitabine-N^4-elaidic amide, Elaidic Acid (N^4)-Gemcitabine Amide] |  2/8 | 155% |  0/8 | ⅛ | 185.6% |  0/8 | – | – | – | – | – | – | – | ⅙ | 172.5% |  0/6 |  0/6 | 215.7% |  0/6 | – | Long term survivors (>35 d) [1, 16]: 5/8 and ⅝; Mean survival time T/C [1, 16]: 103.7%; Toxic deaths [1, 16]: ⅛; IC50 (subline C26G): < 0.1 nM; Long term survivors (>35 d) [3, 17]:  2/6; Mean survival time T/C [3, 17]: 178%; Toxic deaths [3, 17]:  0/6; Long term survivors (>35 d) [3, 18]: ⅙; Mean survival time T/C [3, 18]: 183%; Toxic deaths [3, 18]:  0/6; IC50 ([4]; 72 hours continuous exposure): 35000 nM; IC50 ([5]; 72 hours continuous exposure): < 0.1 nM; IC50 [6]: < 0.1 nM
